Test results reported in US9835629B2, “Methods and reagents for biomolecule labeling, enrichment and gentle elution” (Pierce Biotechnology, Inc., priority 2012, dated 2017).

What was measured:
[1] = system: Anti-TMT™ antibody resin; assay: elution of TMT-labeled protein from anti-TMT antibody resin; parameters: species or system mice; conditions: micromolar to millimolar, intact protein labeled with amine-reactive TMT
Excerpt: (§1) As the protein is labeled at nearly all amine sites, more sites on the protein are likely bound to the resin and more competitor reagent is necessary to elute the bound protein (FIG. 3B).

[2] = system: anti-TMT™ antibody; assay: surface plasmon resonance competitive elution of anti-TMT antibody bound to a TMT-labeled surface; assay type: binding, mice; conditions: washing in μM to mM concentrations, room temperature
Protocol: as §1
For total cysteine alkylation, cell lysates and purified proteins were denatured, reduced, and labeled with excess iodoTMTzero or iodoTMTsixplex reagents prior to enzymatic digestion. For cysteine S-nitrosylation quantitation, samples were treated with nitrosylation donor agents (e.g. GSH-NO) and alkylated with methyl methanethiosulfonate (MMTS) to block unmodified sulfhydryl groups. […] An anti-TMT antibody resin was used for labeled peptide enrichment. Peptide samples were analyzed using a Thermo Scientific LTQ™ ORBITRAP XL mass spectrometer. Data were analyzed using Thermo Scientific PROTEOME DISCOVERER 1.3 software. Elution buffer was evaluated by surface plasmon resonance (SPR) using a TMT-derivatized CM5 chip on a GE Healthcare BIACORE 3000 instrument.

[3] = system: anti-TMT immobilized antibody resin; assay: elution of iodoTMT-labeled peptides of a cell lysate from anti-TMT resin, LC-MS/MS; parameters: species or system mice
Protocol: Peptides were washed with Tris buffered saline (TBS), […] detergent (Waters), or CHAPS detergent and eluted with 0.4% trifluoracetic acid (pH about 2), or washed with TBS and water prior to elution with DMP at the indicated concentrations and pH. Eluted peptides were analyzed by LC-MS/MS on a Thermo Scientific ORBITRAP XL and data was interpreted with Thermo Scientific PROTEOME DISCOVERER 1.3 to identify the eluted peptides and the number of iodoTMT labeled peptides specifically eluted (percentage shown above each bar). In FIG. 4B, a cell lysate was S-nitrosylated in vitro with nitroglutathione, the free thiols were irreversibly alkylated with iodoacetamide, the nitroso groups were reduced and selectively released with ascorbic acid, the newly exposed cysteines were irreversibly alkylated with iodoTMT, and the samples were then reduced to remove disulfide linkages, alkylated with iodoacetamide, and digested with trypsin. These peptide samples were enriched with the anti-TMT antibody, and samples of the load, the flowthrough, and the non-specific and specific elutions were assessed for peptide recovery and specificity.
Cell lysates were labeled with an irreversible cysteine-reactive iodoacetyl TMT® reagent, digested, and then captured with the anti-TMT™ resin. The bound peptides were eluted non-specifically with different pH and detergent conditions or specifically with different concentrations and pH of DMP elution reagent (FIG. 4A). […] As DMP is not a biological molecule, there is no interference from endogenous levels. In contrast, biotinylated molecules are more difficult to recover and may result in the enrichment of interfering endogenously biotinylated molecules.

[4] = system: anti-TMT™ antibody; assay: enrichment and elution of S-nitrosylated, iodoTMT-labeled peptides with anti-TMT antibody; parameters: species or system mice; conditions: in vitro S-nitrosylated cell lysate
Protocol: Peptides were washed with Tris buffered saline (TBS), […] detergent (Waters), or CHAPS detergent and eluted with 0.4% trifluoracetic acid (pH about 2), or washed with TBS and water prior to elution with DMP at the indicated concentrations and pH. Eluted peptides were analyzed by LC-MS/MS on a Thermo Scientific ORBITRAP XL and data was interpreted with Thermo Scientific PROTEOME DISCOVERER 1.3 to identify the eluted peptides and the number of iodoTMT labeled peptides specifically eluted (percentage shown above each bar). […] These peptide samples were enriched with the anti-TMT antibody, and samples of the load, the flowthrough, and the non-specific and specific elutions were assessed for peptide recovery and specificity.
The cysteine-reactive […] tags and affinity enrichment reagents are used for the enrichment, detection, and quantification of low abundance protein modifications. […] These peptide samples were then enriched with the anti-TMT™ antibody, and a sample of the load, the flowthrough, and the non-specific and specific elutions were assessed for peptide recovery and specificity (FIG. 4B). […]
For total cysteine alkylation, cell lysates and purified proteins were denatured, reduced, and labeled with excess iodoTMTzero or iodoTMTsixplex reagents prior to enzymatic digestion. […] Peptide samples were analyzed using a Thermo Scientific LTQ™ ORBITRAP XL mass spectrometer. […]

[5] = iodoacetyl TMT-labeled cell lysate peptides

SMILES: C[C@@H]1CCC[C@H](C)N1 [DMP, cis-2,6-dimethyl piperidine]
- elution of bound TMT-labeled protein from anti-TMT antibody resin [1]: efficiently eluted
- elution of bound anti-TMT antibody from TMT-labeled surface [2]: elutes bound antibody within minutes
- elution efficiency at high pH ([3]; 10 mM, high pH): even more efficient
- specificity of elution at high pH ([3]; 10 mM, high pH): lower specificity of elution
- number of peptides eluted versus non-specific elution conditions [3, 5]: over 100 times
- specificity of elution [3, 5]: greater than 90%
- more peptides yielded than a low pH elution ([4]; specific elution): approximately 50%
- specificity of the enrichment of iodoTMT-labeled peptides ([4]; specific elution (6% with low pH elution)): 21%
